The record followed here is ChEMBL document CHEMBL1143624, “1-(5-Chloro-2-alkoxyphenyl)-3-(5-cyanopyrazin-2-yl)ureas [correction of cyanopyrazi] as potent and selective inhibitors of Chk1 kinase: synthesis, preliminary SAR, and biological activities” (J Med Chem, 2005).

For assay [1], the system named is HeLa. Description: Anti-proliferative activity against HeLa cells. As to conditions: Homo sapiens. The assay is classed as functional, cell-based.
Assay [2] relates to HeLa. Description: Ratio of antiproliferative activities (EC50) against HeLa Cells to that with 150 nM doxorubicin. The assay is classed as functional, Homo sapiens.
For assay [3], the target named is T1, Serine/threonine-protein kinase Chk1 (Homo sapiens, UniProt O14757).
T1 sequence (O14757 whole entry): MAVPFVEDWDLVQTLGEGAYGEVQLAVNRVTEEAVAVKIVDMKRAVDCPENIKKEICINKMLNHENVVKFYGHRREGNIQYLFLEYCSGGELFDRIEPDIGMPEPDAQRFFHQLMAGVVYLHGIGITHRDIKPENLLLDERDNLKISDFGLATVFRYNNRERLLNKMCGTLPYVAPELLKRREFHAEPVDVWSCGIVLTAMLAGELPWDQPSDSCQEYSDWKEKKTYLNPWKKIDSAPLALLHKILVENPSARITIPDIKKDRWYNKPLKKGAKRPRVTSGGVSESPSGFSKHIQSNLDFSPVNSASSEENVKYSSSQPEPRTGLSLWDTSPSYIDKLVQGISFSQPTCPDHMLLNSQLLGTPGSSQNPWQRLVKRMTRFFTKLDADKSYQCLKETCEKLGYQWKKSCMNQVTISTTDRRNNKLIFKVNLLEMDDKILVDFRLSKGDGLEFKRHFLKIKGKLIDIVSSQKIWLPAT
Description: Inhibition of Serine/threonine-protein kinase Chk1.

Assay [4] concerns HeLa. The assay is described as follows: Anti-proliferative activity against HeLa cells in the presence of 150 nM of doxorubicin. The assay is classed as functional, cell-based. As to conditions: Homo sapiens.
For assay [5], the target named is Mitogen-activated protein kinase 1 (Homo sapiens, UniProt P28482). The assay is described as follows: Inhibition of Extracellular signal-regulated kinase 2 (ERK2).
The target in assay [6] is Serine/threonine-protein kinase Chk2 (Homo sapiens, UniProt O96017). Description: Inhibition of Serine/threonine-protein kinase Chk2.
Assay [7] concerns the target RAC-alpha serine/threonine-protein kinase (Homo sapiens, UniProt P31749). The assay is described as follows: Inhibition of Protein kinase B, alpha (Akt1).
Assay [8] deals with T2, Aurora kinase A (Homo sapiens, UniProt O14965).
T2 sequence (O14965 whole entry): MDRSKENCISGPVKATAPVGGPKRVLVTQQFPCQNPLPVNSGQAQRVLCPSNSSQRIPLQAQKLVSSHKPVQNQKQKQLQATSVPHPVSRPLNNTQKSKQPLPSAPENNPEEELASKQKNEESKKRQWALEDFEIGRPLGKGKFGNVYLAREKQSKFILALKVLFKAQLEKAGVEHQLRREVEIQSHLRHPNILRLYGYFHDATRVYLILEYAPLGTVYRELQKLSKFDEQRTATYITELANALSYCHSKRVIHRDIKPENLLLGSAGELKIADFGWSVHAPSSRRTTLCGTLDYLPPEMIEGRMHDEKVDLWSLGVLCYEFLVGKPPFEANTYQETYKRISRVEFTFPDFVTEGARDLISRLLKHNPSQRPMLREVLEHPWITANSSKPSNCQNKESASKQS
The assay is described as follows: Inhibition of Aurora kinase A (Aur1).

Assay [9] concerns the target T3, Serine/threonine-protein kinase Sgk1 (Homo sapiens, UniProt O00141).
T3 sequence (O00141 whole entry): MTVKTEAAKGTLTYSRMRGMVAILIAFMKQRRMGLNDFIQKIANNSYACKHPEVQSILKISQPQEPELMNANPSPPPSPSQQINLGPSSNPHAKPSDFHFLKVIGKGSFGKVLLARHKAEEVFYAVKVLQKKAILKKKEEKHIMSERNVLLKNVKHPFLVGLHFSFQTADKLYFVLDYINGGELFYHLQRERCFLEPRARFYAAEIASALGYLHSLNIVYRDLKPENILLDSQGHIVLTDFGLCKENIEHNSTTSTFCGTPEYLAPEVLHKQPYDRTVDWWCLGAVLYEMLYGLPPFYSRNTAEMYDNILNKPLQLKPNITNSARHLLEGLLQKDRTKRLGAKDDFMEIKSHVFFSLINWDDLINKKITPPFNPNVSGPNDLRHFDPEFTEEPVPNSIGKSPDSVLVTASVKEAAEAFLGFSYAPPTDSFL
Description: Inhibition of Serum/glucocorticoid regulated kinase (SGK).

For assay [10], the target named is MAP/microtubule affinity-regulating kinase 3 (Homo sapiens, UniProt P27448). Description: Inhibition of MAP/microtubule affinity-regulating kinase 3 (cTak1).
Assay [11] has as its target Cyclin-dependent kinase 1 (Homo sapiens, UniProt P06493). Description: Inhibition of Serine/threonine kinase Cdc2 (Cdc2).
Assay [12] in a line: Inhibition of Protein kinase A (PKA).
The nature of assay [13]: Inhibition of Protein kinase C gamma (PKCgamma).
For assay [14], the target named is Protein kinase C delta type (Homo sapiens, UniProt Q05655). Description: Inhibition of Protein kinase C delta (PKCdelta).
Assay [15] concerns SW-620. The assay is described as follows: Concentration required to inhibit growth of SW620 (human colon cancer) cells. The assay is classed as functional, cell-based.
Assay [16] has as its system SW-620. The assay is described as follows: Concentration required to inhibit growth of SW620 (human colon cancer) cells in the presence of 10 uM of Compound 2e. The assay is classed as functional, cell-based.

The term EC50 denotes the concentration that produces a half-maximal response. What is called IC50 is the concentration that gives 50% inhibition. Read a low IC50 as higher potency.

Chain of Protein kinase C delta type (Q05655 whole entry): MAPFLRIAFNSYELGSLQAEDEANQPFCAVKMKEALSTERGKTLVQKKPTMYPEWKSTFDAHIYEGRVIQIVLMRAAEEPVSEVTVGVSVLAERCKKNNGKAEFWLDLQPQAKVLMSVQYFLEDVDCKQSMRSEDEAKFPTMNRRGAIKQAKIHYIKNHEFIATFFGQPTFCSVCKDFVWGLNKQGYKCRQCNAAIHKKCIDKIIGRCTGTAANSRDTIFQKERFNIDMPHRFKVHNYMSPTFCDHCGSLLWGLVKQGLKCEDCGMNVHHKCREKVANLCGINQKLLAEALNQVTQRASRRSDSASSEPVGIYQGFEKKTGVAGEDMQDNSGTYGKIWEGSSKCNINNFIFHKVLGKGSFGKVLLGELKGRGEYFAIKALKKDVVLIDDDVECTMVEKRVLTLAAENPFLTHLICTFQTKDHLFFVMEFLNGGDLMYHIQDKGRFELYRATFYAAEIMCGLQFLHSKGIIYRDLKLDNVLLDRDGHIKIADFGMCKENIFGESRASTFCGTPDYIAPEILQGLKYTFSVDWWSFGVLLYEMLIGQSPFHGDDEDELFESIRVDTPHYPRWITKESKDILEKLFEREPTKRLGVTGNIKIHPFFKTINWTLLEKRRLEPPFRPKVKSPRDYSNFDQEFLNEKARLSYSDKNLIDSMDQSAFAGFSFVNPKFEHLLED
Chain of Cyclin-dependent kinase 1 (P06493 whole entry): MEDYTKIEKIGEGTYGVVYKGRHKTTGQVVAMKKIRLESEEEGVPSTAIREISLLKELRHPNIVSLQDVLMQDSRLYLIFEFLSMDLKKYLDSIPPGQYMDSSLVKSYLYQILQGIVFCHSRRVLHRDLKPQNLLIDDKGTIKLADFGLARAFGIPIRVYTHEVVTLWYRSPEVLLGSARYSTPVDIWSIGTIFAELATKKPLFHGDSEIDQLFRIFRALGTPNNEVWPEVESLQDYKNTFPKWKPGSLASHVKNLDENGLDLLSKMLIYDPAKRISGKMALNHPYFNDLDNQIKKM
Chain of RAC-alpha serine/threonine-protein kinase (P31749 whole entry): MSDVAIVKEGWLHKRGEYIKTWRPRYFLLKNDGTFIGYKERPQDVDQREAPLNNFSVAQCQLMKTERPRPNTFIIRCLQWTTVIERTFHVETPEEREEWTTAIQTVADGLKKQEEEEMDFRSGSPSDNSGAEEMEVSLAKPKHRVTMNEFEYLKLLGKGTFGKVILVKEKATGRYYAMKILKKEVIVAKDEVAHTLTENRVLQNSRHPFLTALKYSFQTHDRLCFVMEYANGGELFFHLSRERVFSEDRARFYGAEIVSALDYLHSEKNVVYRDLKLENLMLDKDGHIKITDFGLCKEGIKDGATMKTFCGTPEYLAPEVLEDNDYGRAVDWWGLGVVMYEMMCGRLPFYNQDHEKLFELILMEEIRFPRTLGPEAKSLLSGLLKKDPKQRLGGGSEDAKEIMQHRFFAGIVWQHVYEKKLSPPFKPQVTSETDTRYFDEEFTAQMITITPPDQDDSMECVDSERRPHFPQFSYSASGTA
Chain of MAP/microtubule affinity-regulating kinase 3 (P27448 whole entry): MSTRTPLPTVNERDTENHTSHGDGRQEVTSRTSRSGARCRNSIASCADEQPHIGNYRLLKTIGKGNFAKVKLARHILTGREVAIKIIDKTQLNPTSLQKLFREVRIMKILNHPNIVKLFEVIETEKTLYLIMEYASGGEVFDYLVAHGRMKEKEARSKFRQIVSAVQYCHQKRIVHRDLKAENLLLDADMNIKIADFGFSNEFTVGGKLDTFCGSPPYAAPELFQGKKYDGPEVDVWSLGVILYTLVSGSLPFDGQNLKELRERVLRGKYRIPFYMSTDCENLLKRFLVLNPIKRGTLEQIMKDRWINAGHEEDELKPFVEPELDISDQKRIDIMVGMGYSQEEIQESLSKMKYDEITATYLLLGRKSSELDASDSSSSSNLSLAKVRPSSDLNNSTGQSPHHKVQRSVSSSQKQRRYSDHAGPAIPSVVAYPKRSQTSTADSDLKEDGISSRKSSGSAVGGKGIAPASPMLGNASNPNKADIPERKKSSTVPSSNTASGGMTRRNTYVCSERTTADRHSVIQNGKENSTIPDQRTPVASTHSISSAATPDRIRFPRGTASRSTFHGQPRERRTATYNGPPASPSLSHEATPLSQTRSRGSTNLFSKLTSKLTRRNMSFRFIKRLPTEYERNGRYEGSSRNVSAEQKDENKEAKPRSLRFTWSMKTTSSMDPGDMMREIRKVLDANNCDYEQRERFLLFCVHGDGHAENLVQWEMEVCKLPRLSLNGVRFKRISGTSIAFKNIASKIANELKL
Chain of Mitogen-activated protein kinase 1 (P28482 whole entry): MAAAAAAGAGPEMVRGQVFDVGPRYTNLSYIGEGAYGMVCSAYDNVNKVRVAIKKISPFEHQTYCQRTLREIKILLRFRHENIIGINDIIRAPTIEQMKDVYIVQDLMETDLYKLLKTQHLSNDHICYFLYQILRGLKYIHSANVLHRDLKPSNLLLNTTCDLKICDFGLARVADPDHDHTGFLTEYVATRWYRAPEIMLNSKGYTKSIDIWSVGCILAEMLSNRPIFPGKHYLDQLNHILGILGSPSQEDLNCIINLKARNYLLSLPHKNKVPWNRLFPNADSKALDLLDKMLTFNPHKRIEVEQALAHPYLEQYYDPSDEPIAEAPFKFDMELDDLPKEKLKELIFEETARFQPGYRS
Chain of Serine/threonine-protein kinase Chk2 (O96017 whole entry): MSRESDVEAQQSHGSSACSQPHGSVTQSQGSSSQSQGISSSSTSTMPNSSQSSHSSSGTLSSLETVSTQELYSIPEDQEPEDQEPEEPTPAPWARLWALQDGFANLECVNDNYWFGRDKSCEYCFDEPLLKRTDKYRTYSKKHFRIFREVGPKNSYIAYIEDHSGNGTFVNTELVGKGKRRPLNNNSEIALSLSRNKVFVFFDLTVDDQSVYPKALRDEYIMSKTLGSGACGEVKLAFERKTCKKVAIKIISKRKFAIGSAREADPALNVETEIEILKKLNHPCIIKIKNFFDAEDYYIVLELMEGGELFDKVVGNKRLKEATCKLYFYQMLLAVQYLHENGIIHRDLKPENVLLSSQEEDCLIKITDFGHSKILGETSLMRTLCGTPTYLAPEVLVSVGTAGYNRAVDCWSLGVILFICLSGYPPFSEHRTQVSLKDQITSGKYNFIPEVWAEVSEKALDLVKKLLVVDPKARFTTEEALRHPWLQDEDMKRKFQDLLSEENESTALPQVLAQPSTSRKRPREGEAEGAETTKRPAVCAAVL

Turning to `N#Cc1cnc(NC(=O)Nc2cc(Cl)ccc2OC2CCOCC2)cn1`, the concentration for a half-maximal effect (EC50) in assay [1] is above 59 µM; in assay [4] it was 37 µM. Further, the Ratio in [2] is above 1. This compound also had an IC50 in assay [3] of 0.005 µM.
As for `CC(CN(C)C)Oc1ccc(Cl)cc1NC(=O)Nc1cnc(C#N)cn1` (stereo unspecified), the EC50 was determined as 1.5 µM in assay [1] and 0.4 µM in assay [4]. Also, the IC50 in assay [5] is above 50 µM; in [6] it was 2.8 µM; in assay [7], above 50 µM; in [8] it was 3.23 µM; in [9], above 50 µM; in assay [10] it was 1.51 µM. The IC50 in assay [11] was above 50 µM; in assay [12], above 50 µM; in [3] it was 0.008 µM; in assay [13] it was 50 µM; in assay [14] it was 50 µM. The Ratio in assay [2] is 3.7.
For `CN1CCC(Oc2ccc(Cl)cc2NC(=O)Nc2cnc(C#N)cn2)CC1`, the EC50 in assay [1] came to 10.4 µM; in assay [4] it was 10 µM. The Ratio in [2] is 1. This compound also yielded an IC50 in [3] of 0.01 µM.
Turning to `CC1(COc2ccc(Cl)cc2NC(=O)Nc2cnc(C#N)cn2)COC1`, the EC50 was above 59 µM in assay [1] and 2.6 µM in assay [4]. In addition, the IC50 in assay [5] was above 50 µM; in assay [7], 9.21 µM; in [8], above 10 µM; in assay [9], above 50 µM; in [10], above 10 µM; in assay [11] it was above 50 µM. For the same compound, the IC50 in assay [12] is above 50 µM; in assay [3], 0.007 µM; in assay [13], above 50 µM; in assay [14], above 50 µM. Moreover, the Ratio in assay [2] was above 22.
Take `N#Cc1cnc(NC(=O)Nc2cc(Cl)ccc2OC2CCOC2)cn1` (stereo unspecified): the results for the EC50 in assay [1] and in assay [4] were 18.7 µM and 5 µM, respectively. Further, the Ratio in [2] worked out at 3.6. This compound also gave a half-maximal inhibitory concentration (IC50) in assay [3] of 0.003 µM.
Turning to `CC[C@@]1(O)C(=O)OCc2c1cc1n(c2=O)Cc2cc3ccccc3nc2-1` [CAMPTOTHECIN], the EC50 in [15] was 0.0012 µM; in assay [16] it was 0.00015 µM.
